The results in this text go back to US7361690B2, “Compositions and methods for the treatment of urinary incontinence” (Gruenenthal GmbH, priority 2000, dated 2008).

Experiment [1] relates to female Sprague-Dawley rats. Briefly: Cystometry tests on conscious fresh rats. It is filed as in vivo, rat. The following applies: effect maximum, mean of 3 micturition cycles. How it is done: Cystometry investigations were carried out on fresh female Sprague-Dawley rats according to the method of Ishizuka et. al. ((1997), Naunyn-Schmiedeberg's Arch. Pharmacol. 355: 787-793). Three days after implantation of bladder and venous catheters the animals were investigated in the conscious state while freely moving. The bladder catheter was connected to a pressure gauge and an injection pump. The animals were placed in metabolic cages that enable the volume of urine to be measured. Physiological saline solution was infused (10 ml/hour) into the emptied bladder and the bladder pressure and volume of urine were continuously recorded. After a stabilization phase a 20-minute phase was recorded that was characterized by normal, reproducible micturition cycles. The following parameters among others were measured: • threshold pressure (TP), bladder pressure immediately before micturition, • bladder capacity (BC), residual volume after prior micturition plus volume of infused solution during the filling phase, • intercontraction interval (ICI), the time interval between consecutive micturition.
An increase in the threshold pressure (TP) indicates an important therapeutic effect in one of the medical conditions suitable for treatment with the method of the invention. Also, the intercontraction interval (ICI) is an important parameter for measuring the physiological effectiveness of a substance in the treatment of urinary incontinence, as is the bladder capacity (BC). In this connection, on account of the widely differing causes of the symptoms of these disease patterns it is not necessary to influence positively all three parameters in order for a medicament to be effective.
After recording three reproducible micturition cycles to provide a baseline value, the test substances 24 (1.0; 3.0; 5.0 mg/kg), 25 (1.5 mg/kg) and 26 (3.0 mg/kg) in a vehicle comprising 0.9% NaCl were applied intravenously and the effect on the cystometric parameters was recorded at 90 to 120 minutes. In the effect maximum the mean value of 3 micturition cycles was determined and recorded as a percentage change compared to the baseline value (Table 1).

In experiment [2] the test system is narcotized ventilated rats. In words: Cystometry investigations in narcotized fresh rats (suppression of rhythmic spontaneous bladder contractions). It is filed as in vivo, rat. Conditions: intravenous, cumulative, lowest dose at which contractions disappeared for the first time over a period of 10 minutes. On the procedure:
The cystometric investigation was carried out on fresh female rats according to the method of Kimura et al. (Kimura et al., 1996, Int. J. Urol. 3: 218-227). The abdomen of narcotized ventilated rats is opened and the ureter is ligated. The urine is drawn off from the kidneys. A catheter is inserted into the bladder and secured in place. […] The test substance is applied intravenously in a cumulative manner after stable starting values were reached. An effect on the bladder function is manifested by the suppression of the spontaneous contractions. The disappearance of the contractions over a period of 10 minutes serves as a parameter for their suppression.
With all the substances listed there was a measurable suppression of the spontaneous contractions in rats.

Marks after values point to notes of the source that are not given here.

On to `COc1cccc([C@@]2(O)C[C@H](O)CC[C@@H]2CN(C)C)c1.Cl` (racemic) [Compound 24, (1RS,3RS,6RS)-6-dimethylaminomethyl-1-(3-methoxyphenyl)-cyclohexane-1,3-diol, hydrochloride], for which the “BC Bladder Capacity, change compared to the baseline value” (“BC Bladder Capacity, change” below) in experiment [1] (1.0 mg/kg iv) is −8.0%; in experiment [1] (3.0 mg/kg iv), −16.0%*; in experiment [1] (5.0 mg/kg iv), −26.0%. In addition, the “ICI Inter-Contraction Interval, change compared to the baseline value” (“ICI Inter-Contraction Interval, change” for short) in experiment [1] (1.0 mg/kg iv) was −15%**; in experiment [1] (3.0 mg/kg iv), −16%*; in experiment [1] (5.0 mg/kg iv), −21.2%. In addition, the results for the “TP Threshold Pressure, change compared to the baseline value” (“TP Threshold Pressure, change” for short) in experiment [1] (1.0 mg/kg iv), in experiment [1] (3.0 mg/kg iv) and in experiment [1] (5.0 mg/kg iv) were “+44.0%***”, “+94.0%**” and “+69.0%*”, respectively.

For `CN(C)C[C@H]1CC[C@@H](O)C[C@]1(O)c1cccc(O)c1.Cl` (racemic) [Compound 26, (1RS,3RS,6RS)-6-dimethylaminomethyl-1-(3-hydroxyphenyl)-cyclohexane-1,3-diol, hydrochloride], in experiment [1] (3.0 mg/kg iv), the “BC Bladder Capacity, change” value is recorded as “+29.0%***”; the “ICI Inter-Contraction Interval, change” value is recorded as “+27.0%*”; the “TP Threshold Pressure, change” value is “+86.0%***”.

For `COc1cccc([C@@]2(O)C[C@@H](O)CC[C@@H]2CN(C)C)c1.Cl` (racemic) [Compound 27, (1RS,3SR,6RS)-6-dimethylaminomethyl-1-(3-methoxyphenyl)-cyclohexane-1,3-diol, hydrochloride], the “Mean Value of Lowest Dose for Contraction Suppression” value (“Mean Value of Lowest Dose” below) in experiment [2] was 115 (n = 2) mg/kg.

Turning to `COc1cccc([C@@]2(O)C[C@H](O)CC[C@@H]2CN(C)C)c1.Cl` [Compound 25, (+)-(1R,3R,6R)-6-dimethylaminomethyl-1-(3-methoxyphenyl)-cyclohexane-1,3-diol, hydrochloride], in experiment [1] (1.5 mg/kg iv), the “BC Bladder Capacity, change” value is −14.0%*; the “ICI Inter-Contraction Interval, change” value is −9.0%; the “TP Threshold Pressure, change” value is reported as “+62.0%*”.

As for `C[C@H]1CC[C@H](CN(C)C)[C@@](O)(c2cccc(O)c2)C1.Cl` [Compound 28, (+)-(1R,2R,5S)-3-(2-dimethylaminomethyl-1-hydroxy-5-methylcyclohexyl)-phenol, hydrochloride], the “Mean Value of Lowest Dose” value in experiment [2] is on record as 16.7 (n = 3) mg/kg.

“(1RS,2RS,5RS)-3-(2-dimethylaminomethyl-1-hydroxy-5-trifluoromethylcyclohexyl)-phenol,hydrochloride [Compound 29]”: the “Mean Value of Lowest Dose” value in experiment [2] is listed as 23.3 (n = 3) mg/kg.
